Measurements published in patent publication US9526802B2, “Nucleic acid complexes” (Purdue Research Foundation, priority 2012, dated 2016).

Key:
pDNA = test: Gel shift assay; assay type: binding; details: various N:P ratios, compared among 4, 5, 6
Method: The complexation ability of the systems was studied by gel shift assay. Agarose gels (1% w/v) containing ethidium bromide were made in 1× TE buffer. Transfection complexes were loaded onto the gel at various N:P ratios and 200 ng of DNA added to the wells. The gels were run at 50 V for about 1 h and visualized.
Also, in the absence of polymer, higher N:P ratios were used to condense pDNA effectively. […] This improved condensation capability of 6 relative to 4 and 5 can be attributed to the availability of both the nitrogens on the hydrazine moiety for interaction with pDNA.

CHO-GFP cells = test: Cell viability assay (1), MTS; assay type: cell-based
Method: FIG. 3 depicts cell viabilities of 1, 2, 3, Chol-PVA-PEG and Chol-PVA-PEG+1 host:guest pendant polymer complexes in CHO-GFP cells using 25 kD bPEI as control.
The cytotoxicity of the amino-CD derivatives in comparison with bPEI (25 kDa) was evaluated using the MTS assay in CHO-GFP cell lines. The relative cell viabilities were measured as a function of amine densities of the polymers. […] After 24 h, culture media were replaced with serum-free culture media containing increasing amine concentrations of amino-CD, polymer and the polymer:CD complexes and the cells were incubated for 24 h. After 24 h, 15 μl of MTS reagent was added to each well and incubated for 2 h. […] All experiments were conducted for three samples and averaged. […] In this study, LD50 was the concentration of a gene carrier at which the relative cell viability decreased to 50%.

Compound	capacity for condensing pDNA (pDNA)	LD50 (CHO-GFP cells) [mM]
NNC[C@H]1O[C@@H]2O[C@H]3[C@H](O)[C@@H](O)[C@@H](O[C@H]4[C@H](O)[C@@H](O)[C@@H](O[C@H]5[C@H](O)[C@@H](O)[C@@H](O[C@H]6[C@H](O)[C@@H](O)[C@@H](O[C@H]7[C@H](O)[C@@H](O)[C@@H](O[C@H]8[C@H](O)[C@@H](O)[C@@H](O[C@H]1[C@H](O)[C@H]2O)O[C@@H]8CNN)O[C@@H]7CNN)O[C@@H]6CNN)O[C@@H]5CNN)O[C@@H]4CNN)O[C@@H]3CNN [Compound 6, hepta-6-hydrazyl-β-CD]	greatest capacity for condensing pDNA	
CNCCN(C)C[C@H]1O[C@@H]2O[C@H]3[C@H](O)[C@@H](O)[C@@H](O[C@H]4[C@H](O)[C@@H](O)[C@@H](O[C@H]5[C@H](O)[C@@H](O)[C@@H](O[C@H]6[C@H](O)[C@@H](O)[C@@H](O[C@H]7[C@H](O)[C@@H](O)[C@@H](O[C@H]8[C@H](O)[C@@H](O)[C@@H](O[C@H]1[C@H](O)[C@H]2O)O[C@@H]8CO)O[C@@H]7CO)O[C@@H]6CO)O[C@@H]5CO)O[C@@H]4CO)O[C@@H]3CO [Compound 2, Mono-6-(N,N′-dimethylethane-1,2-diamine)-6-deoxy-β-cyclodextrin]		> 10
